Results taken from US20090269416A1, “Compositions and Methods For Preventing or Treating Chronic Renal Failure in Felines With Hyperthyroidism” (HILL'S PET NUTRITION , INC., priority 2006, published 2009).

Test system: cats diagnosed with hyperthyroidism
Assay: Six-week feeding/treatment study in hyperthyroid cats (Example 1): thyroid hormone profiles and serum chemistries
Assay type: in vivo
Conditions: six weeks
Procedure: Food B1 and food B2 were mixed in a 1:1 ratio, thus resulting in food B. A group of five cats diagnosed with hyperthyroidism was fed food B for six weeks. Another live cats diagnosed with hyperthyroidism were given 2.5 mg methimazole orally once a day for six weeks while they were fed food B. Eight eats diagnosed with hyperthyroidism were given 2.5 mg methimazole orally once a day for six weeks while they were fed a commercially available cat food. The thyroid hormone profiles and serum chemistries of all cats were measured at zero, two, four, and six weeks.

[1] = hyperthyroid cats, methimazole 2.5 mg orally once a day, food B fed

With `Cn1cc[nH]c1=S` [Methimazole, methimazole] the “Change in Serum Creatinine Levels” value [1] was “+0.46 mg/dL”, the “Change in Serum Total T4 Levels” value [1] was -20.3 nmol/L and the “serum creatinine concentration relative to the normal creatinine concentration range” value (normal range 0.8-1.8 mg/dL) was “a bit higher than die 0.8-1.8 mg/dL normal creatinine concentration range”. For the same compound, the “serum total T4 concentration relative to the normal total T4 concentration range” value (normal range printed as 10-55 nmol/dL) was “did not reach the normal total T4 concentration range”.
